The values below come from ChEMBL document CHEMBL3758169, “4-Aminoindazolyl-dihydrofuro[3,4-d]pyrimidines as non-covalent inhibitors of mutant epidermal growth factor receptor tyrosine kinase” (Bioorg Med Chem Lett, 2016).

Data set [1] has as its target Protein kinase C eta type (Homo sapiens) (UniProt P24723). Put plainly: Inhibition of PKCeta (unknown origin) at 100 nM.
In data set [2] the target is Calcium/calmodulin-dependent protein kinase type II subunit alpha (Homo sapiens) (UniProt Q9UQM7). Nature of the data set: Inhibition of CamKIIalpha (unknown origin) at 100 nM.
In data set [3] the target is Mitogen-activated protein kinase kinase kinase 10 (Homo sapiens) (UniProt Q02779). Nature of the data set: Inhibition of MLK2 (unknown origin) at 100 nM.
Data set [4] deals with Vascular endothelial growth factor receptor 3 (Homo sapiens) (UniProt P35916). Nature of the data set: Inhibition of FLT4 (unknown origin) at 100 nM.
Data set [5] deals with Serine/threonine-protein kinase 33 (Homo sapiens) (UniProt Q9BYT3). Nature of the data set: Inhibition of STK33 (unknown origin) at 100 nM.
Data set [6] has as its target Calcium/calmodulin-dependent protein kinase type IV (Homo sapiens) (UniProt Q16566). Nature of the data set: Inhibition of CamKIV (unknown origin) at 100 nM.
Data set [7] has as its target Phosphatidylinositol 4,5-bisphosphate 3-kinase catalytic subunit gamma isoform (Homo sapiens) (UniProt P48736). Put plainly: Inhibition of PI3KG (unknown origin) at 100 nM.
In data set [8] the target is Casein kinase I isoform epsilon (Homo sapiens) (UniProt P49674). Put plainly: Inhibition of CK1epsilon1 (unknown origin) at 100 nM.
In data set [9] the target is Dual specificity mitogen-activated protein kinase kinase 3 (Homo sapiens) (UniProt P46734). Put plainly: Inhibition of MEK3 (unknown origin) at 100 nM.
The target in data set [10] is Casein kinase I isoform gamma-1 (Homo sapiens) (UniProt Q9HCP0). Put plainly: Inhibition of CK1gamma1 (unknown origin) at 100 nM.
For data set [11], the target named is Macrophage-stimulating protein receptor (Homo sapiens) (UniProt Q04912). Nature of the data set: Inhibition of RON (unknown origin) at 100 nM.
Data set [12] deals with Serine/threonine-protein kinase BRSK1 (Homo sapiens) (UniProt Q8TDC3). Nature of the data set: Inhibition of BRSK1 (unknown origin) at 100 nM.
Data set [13] relates to Platelet-derived growth factor receptor alpha (Homo sapiens), P16234 [T674I]. Put plainly: Inhibition of PDGFRalpha T674I mutant (unknown origin) at 100 nM.
Data set [14] addresses Ribosomal protein S6 kinase alpha-6 (Homo sapiens) (UniProt Q9UK32). Nature of the data set: Inhibition of RSK4 (unknown origin) at 100 nM.
The target of data set [15] is Serine/threonine-protein kinase Sgk2 (Homo sapiens) (UniProt Q9HBY8). Put plainly: Inhibition of SGK2 (unknown origin) at 100 nM.
Data set [16] addresses Ephrin type-A receptor 5 (Homo sapiens) (UniProt P54756). Nature of the data set: Inhibition of EPHA5 (unknown origin) at 100 nM.
For data set [17], the target named is Protein kinase C theta type (Homo sapiens) (UniProt Q04759). Put plainly: Inhibition of PKCtheta (unknown origin) at 100 nM.
Data set [18] deals with Casein kinase I isoform gamma-3 (Homo sapiens) (UniProt Q9Y6M4). Nature of the data set: Inhibition of CK1gamma3 (unknown origin) at 100 nM.
The target in data set [19] is Cyclin-dependent kinase 7/ cyclin H (Homo sapiens) (UniProt P51946+P50613). Put plainly: Inhibition of CDK7/cyclinH (unknown origin) at 100 nM. It counts as protein-complex assay.
Data set [20] addresses MAP kinase-activated protein kinase 5 (Homo sapiens) (UniProt Q8IW41). Put plainly: Inhibition of PRAK (unknown origin) at 100 nM.
Data set [21] has as its target Tyrosine-protein kinase Mer (Homo sapiens) (UniProt Q12866). Nature of the data set: Inhibition of MER (unknown origin) at 100 nM.
Data set [22] deals with MAP/microtubule affinity-regulating kinase 3 (Homo sapiens) (UniProt P27448). Nature of the data set: Inhibition of MARK3 (unknown origin) at 100 nM.
Data set [23] concerns the target Death-associated protein kinase 1 (Homo sapiens) (UniProt P53355). Put plainly: Inhibition of DAPK1 (unknown origin) at 100 nM.
In data set [24] the target is Serine/threonine-protein kinase 4 (Homo sapiens) (UniProt Q13043). Nature of the data set: Inhibition of MST1 (unknown origin) at 100 nM.
Data set [25] has as its target Phosphorylase b kinase gamma catalytic chain, skeletal muscle/heart isoform (Homo sapiens) (UniProt Q16816). Nature of the data set: Inhibition of PHKgamma1 (unknown origin) at 100 nM.
Data set [26] addresses Megakaryocyte-associated tyrosine-protein kinase (Homo sapiens) (UniProt P42679). Nature of the data set: Inhibition of Hyl (unknown origin) at 100 nM.
Data set [27] deals with SRSF protein kinase 1 (Homo sapiens) (UniProt Q96SB4). Nature of the data set: Inhibition of SRPK1 (unknown origin) at 100 nM.
Data set [28] has as its target Homeodomain-interacting protein kinase 3 (Homo sapiens) (UniProt Q9H422). Put plainly: Inhibition of HIPK3 (unknown origin) at 100 nM.
In data set [29] the test system is Platelet-derived growth factor receptor alpha (Homo sapiens), P16234 [V561D]. Nature of the data set: Inhibition of PDGFRalpha V561D mutant (unknown origin) at 100 nM.
The target of data set [30] is Rho-associated protein kinase 2 (Homo sapiens) (UniProt O75116). Put plainly: Inhibition of ROCK2 (unknown origin) at 100 nM.
Data set [31] deals with Casein kinase I isoform delta (Homo sapiens) (UniProt P48730). Put plainly: Inhibition of CK1delta (unknown origin) at 100 nM.
Data set [32] deals with Fibroblast growth factor receptor 2 (Homo sapiens) (UniProt P21802). Nature of the data set: Inhibition of FGFR2 (unknown origin) at 100 nM.
The target of data set [33] is Tyrosine-protein kinase Blk (Homo sapiens) (UniProt P51451). Put plainly: Inhibition of BLK (unknown origin) at 100 nM.
Data set [34] deals with Serine/threonine-protein kinase B-raf (Homo sapiens) (UniProt P15056). Put plainly: Inhibition of B-Raf (unknown origin) at 100 nM.
Data set [35] concerns the target Serine/threonine-protein kinase pim-1 (Homo sapiens) (UniProt P11309). Nature of the data set: Inhibition of PIM1 (unknown origin) at 100 nM.
Data set [36] addresses Dual specificity tyrosine-phosphorylation-regulated kinase 3 (Homo sapiens) (UniProt O43781). Nature of the data set: Inhibition of DYRK3 (unknown origin) at 100 nM.
The target of data set [37] is Ribosomal protein S6 kinase alpha-2 (Homo sapiens) (UniProt Q15349). Nature of the data set: Inhibition of RSK3 (unknown origin) at 100 nM.
Data set [38] deals with Serine/threonine-protein kinase 24 (Homo sapiens) (UniProt Q9Y6E0). Nature of the data set: Inhibition of MST3 (unknown origin) at 100 nM.
For data set [39], the target named is Tyrosine-protein kinase receptor TYRO3 (Homo sapiens) (UniProt Q06418). Nature of the data set: Inhibition of RSE (unknown origin) at 100 nM.
In data set [40] the target is Serine/threonine-protein kinase PAK 3 (Homo sapiens) (UniProt O75914). Put plainly: Inhibition of PAK3 (unknown origin) at 100 nM.
The target of data set [41] is Serine/threonine-protein kinase 17A (Homo sapiens) (UniProt Q9UEE5). Put plainly: Inhibition of DRAK1 (unknown origin) at 100 nM.
Data set [42] deals with Mitogen-activated protein kinase kinase kinase kinase 2 (Homo sapiens) (UniProt Q12851). Nature of the data set: Inhibition of GCK (unknown origin) at 100 nM.
Data set [43] relates to Hepatocyte. Nature of the data set: Drug metabolism in human hepatocytes assessed as glucuronidation. It counts as ADME, cell-based.

Chain of Homeodomain-interacting protein kinase 3 (Homo sapiens) (Q9H422 whole entry, looked up): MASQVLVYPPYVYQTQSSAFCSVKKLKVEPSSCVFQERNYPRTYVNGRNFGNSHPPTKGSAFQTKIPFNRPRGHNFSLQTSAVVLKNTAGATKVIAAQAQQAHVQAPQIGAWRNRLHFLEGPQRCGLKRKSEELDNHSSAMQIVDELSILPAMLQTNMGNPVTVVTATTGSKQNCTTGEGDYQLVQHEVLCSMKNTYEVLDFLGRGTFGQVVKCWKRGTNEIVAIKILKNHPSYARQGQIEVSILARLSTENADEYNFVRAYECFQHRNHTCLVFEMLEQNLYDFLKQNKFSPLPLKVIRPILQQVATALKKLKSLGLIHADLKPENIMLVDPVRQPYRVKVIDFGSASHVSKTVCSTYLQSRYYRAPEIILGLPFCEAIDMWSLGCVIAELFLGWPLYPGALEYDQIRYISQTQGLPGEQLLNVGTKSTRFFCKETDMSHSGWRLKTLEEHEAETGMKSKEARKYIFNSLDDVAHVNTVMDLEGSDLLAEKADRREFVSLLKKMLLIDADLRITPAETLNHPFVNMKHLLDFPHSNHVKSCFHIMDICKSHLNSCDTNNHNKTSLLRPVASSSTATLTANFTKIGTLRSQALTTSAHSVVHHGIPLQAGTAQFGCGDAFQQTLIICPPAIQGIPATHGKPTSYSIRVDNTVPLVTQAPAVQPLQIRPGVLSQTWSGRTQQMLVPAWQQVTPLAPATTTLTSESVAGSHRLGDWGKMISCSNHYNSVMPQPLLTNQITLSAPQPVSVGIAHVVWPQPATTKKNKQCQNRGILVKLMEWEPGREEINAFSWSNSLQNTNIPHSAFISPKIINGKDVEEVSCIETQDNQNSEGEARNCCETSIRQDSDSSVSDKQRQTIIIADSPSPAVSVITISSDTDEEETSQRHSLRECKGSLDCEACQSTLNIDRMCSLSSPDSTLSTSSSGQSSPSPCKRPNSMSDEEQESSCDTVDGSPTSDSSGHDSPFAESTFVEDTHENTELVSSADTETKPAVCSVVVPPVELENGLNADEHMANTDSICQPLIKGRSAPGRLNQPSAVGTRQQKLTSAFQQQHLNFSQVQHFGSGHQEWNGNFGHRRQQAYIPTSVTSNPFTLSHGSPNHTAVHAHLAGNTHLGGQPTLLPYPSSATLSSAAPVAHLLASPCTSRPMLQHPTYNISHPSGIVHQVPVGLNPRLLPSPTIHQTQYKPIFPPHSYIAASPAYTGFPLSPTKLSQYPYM
Chain of Serine/threonine-protein kinase B-raf (Homo sapiens) (P15056 whole entry): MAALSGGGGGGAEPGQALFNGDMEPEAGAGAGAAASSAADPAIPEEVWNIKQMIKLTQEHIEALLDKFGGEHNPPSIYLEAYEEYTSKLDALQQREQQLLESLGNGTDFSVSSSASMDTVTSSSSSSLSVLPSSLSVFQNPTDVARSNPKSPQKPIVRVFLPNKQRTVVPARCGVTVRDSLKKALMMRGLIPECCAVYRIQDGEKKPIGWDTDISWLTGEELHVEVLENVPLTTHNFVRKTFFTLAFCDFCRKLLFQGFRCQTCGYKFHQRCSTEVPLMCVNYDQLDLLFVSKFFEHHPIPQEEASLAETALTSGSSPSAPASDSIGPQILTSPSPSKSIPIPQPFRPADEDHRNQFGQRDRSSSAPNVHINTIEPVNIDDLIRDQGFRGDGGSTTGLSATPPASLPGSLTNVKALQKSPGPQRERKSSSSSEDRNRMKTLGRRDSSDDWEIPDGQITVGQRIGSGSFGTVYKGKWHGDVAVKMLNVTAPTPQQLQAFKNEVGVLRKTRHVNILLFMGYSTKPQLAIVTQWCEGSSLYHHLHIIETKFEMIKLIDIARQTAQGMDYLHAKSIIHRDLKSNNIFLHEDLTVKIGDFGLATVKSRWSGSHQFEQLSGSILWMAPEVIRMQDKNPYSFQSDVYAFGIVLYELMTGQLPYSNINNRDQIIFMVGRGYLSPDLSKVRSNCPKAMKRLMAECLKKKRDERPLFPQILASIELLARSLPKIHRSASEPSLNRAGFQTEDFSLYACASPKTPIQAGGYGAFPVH
Chain of Tyrosine-protein kinase receptor TYRO3 (Homo sapiens) (Q06418 whole entry): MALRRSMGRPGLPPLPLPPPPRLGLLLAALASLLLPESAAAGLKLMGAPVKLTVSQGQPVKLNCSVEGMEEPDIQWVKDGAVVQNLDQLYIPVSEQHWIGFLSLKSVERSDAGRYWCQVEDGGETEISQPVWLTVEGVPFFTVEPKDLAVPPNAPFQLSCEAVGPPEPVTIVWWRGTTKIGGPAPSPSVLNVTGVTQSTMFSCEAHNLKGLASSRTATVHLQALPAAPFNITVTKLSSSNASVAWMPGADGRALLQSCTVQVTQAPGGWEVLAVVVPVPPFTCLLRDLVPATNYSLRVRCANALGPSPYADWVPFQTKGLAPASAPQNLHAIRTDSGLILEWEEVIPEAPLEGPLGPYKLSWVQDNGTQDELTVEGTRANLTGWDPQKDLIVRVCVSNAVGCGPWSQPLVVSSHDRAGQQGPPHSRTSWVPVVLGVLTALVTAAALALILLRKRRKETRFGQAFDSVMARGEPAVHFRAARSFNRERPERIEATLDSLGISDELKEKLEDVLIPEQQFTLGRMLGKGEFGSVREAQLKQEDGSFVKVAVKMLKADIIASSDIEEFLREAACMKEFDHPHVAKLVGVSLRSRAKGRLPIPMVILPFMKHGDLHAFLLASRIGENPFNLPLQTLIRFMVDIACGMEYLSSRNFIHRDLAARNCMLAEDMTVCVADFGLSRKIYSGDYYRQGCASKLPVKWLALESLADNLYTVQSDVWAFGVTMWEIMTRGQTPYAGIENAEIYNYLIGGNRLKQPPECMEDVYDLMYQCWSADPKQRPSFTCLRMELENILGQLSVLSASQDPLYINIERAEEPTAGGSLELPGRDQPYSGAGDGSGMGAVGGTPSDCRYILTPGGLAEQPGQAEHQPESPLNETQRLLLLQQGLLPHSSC
Chain of Serine/threonine-protein kinase Sgk2 (Homo sapiens) (Q9HBY8 whole entry): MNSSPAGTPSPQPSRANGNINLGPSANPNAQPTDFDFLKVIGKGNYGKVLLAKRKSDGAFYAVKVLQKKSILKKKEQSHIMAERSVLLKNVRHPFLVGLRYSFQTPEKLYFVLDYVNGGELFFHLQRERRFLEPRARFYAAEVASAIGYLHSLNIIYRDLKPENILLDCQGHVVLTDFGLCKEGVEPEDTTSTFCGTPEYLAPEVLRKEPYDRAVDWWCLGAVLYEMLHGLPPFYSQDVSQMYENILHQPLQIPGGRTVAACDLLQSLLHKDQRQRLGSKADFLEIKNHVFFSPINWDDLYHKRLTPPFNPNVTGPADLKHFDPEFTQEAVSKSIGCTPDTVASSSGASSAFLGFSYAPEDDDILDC
Chain of Casein kinase I isoform delta (Homo sapiens) (P48730 whole entry, looked up, canonical isoform): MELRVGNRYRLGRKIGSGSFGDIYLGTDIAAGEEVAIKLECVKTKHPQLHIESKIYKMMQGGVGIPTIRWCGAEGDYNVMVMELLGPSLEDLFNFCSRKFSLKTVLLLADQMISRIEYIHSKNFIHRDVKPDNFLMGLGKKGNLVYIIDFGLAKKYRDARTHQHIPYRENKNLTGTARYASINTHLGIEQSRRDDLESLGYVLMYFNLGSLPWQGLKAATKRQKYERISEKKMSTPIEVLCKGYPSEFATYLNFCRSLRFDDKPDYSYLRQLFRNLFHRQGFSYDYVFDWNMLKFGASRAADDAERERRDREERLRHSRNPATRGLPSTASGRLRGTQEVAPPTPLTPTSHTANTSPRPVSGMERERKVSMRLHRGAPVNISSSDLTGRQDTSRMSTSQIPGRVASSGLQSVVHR
Chain of Protein kinase C eta type (Homo sapiens) (P24723 whole entry): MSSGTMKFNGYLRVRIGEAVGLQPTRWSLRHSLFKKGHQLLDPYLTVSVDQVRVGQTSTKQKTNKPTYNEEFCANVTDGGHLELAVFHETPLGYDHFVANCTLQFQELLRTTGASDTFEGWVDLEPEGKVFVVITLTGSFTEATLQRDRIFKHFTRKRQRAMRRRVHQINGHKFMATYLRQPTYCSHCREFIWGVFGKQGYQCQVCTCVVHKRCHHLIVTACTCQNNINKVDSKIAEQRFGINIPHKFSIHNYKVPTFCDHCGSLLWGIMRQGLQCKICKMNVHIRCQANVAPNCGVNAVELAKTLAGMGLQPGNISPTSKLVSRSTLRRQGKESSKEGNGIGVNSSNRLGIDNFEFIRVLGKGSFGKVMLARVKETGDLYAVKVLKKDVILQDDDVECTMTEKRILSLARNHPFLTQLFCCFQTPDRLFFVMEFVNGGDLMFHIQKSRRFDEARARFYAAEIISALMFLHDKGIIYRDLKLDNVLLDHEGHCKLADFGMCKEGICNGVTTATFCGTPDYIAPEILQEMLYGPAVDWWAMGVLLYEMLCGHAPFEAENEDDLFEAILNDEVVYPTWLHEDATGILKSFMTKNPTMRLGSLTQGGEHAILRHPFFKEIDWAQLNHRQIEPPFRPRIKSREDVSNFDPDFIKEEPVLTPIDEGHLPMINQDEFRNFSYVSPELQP
Chain of Casein kinase I isoform gamma-1 (Homo sapiens) (Q9HCP0 whole entry, looked up, canonical isoform): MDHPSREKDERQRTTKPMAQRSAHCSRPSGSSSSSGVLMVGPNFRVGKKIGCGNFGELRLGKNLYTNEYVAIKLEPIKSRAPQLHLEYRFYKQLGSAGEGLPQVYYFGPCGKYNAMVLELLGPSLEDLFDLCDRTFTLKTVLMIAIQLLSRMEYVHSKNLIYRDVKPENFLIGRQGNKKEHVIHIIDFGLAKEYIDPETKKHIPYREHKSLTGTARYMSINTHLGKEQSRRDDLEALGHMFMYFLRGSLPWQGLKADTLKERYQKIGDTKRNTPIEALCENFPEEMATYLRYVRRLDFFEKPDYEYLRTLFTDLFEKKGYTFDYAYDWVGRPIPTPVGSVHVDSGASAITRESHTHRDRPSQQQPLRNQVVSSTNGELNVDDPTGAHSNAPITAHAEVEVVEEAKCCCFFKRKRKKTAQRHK

Consider `CC1(C)OCc2c(Nc3n[nH]c4ccccc34)nc(-c3cn[nH]c3)nc21`, for which the inhibition in data set [1] was 15.5%; in [2], -0.1%; in data set [3] it was 2.3%; in [4], 95.8%; in data set [5], 4.2%; in data set [6], 15%. Further, the inhibition amounted to 15.1% in [7]; 5.1% in data set [8]; 14.1% in data set [9]; 1.3% in data set [10]; 3.8% in data set [11]; 1.7% in data set [12]. For the same molecule, the inhibition in [13] came out at 9.5%; in data set [14], 9.8%; in data set [15] it was 2.8%; in data set [16], 15.7%; in data set [17], 4.5%; in [18], 1.8%. The inhibition was 14.3% in data set [19]; 5.7% in data set [20]; 6.3% in data set [21]; 8.4% in [22]; 2.2% in data set [23]; 13.1% in data set [24]. In addition, the inhibition is 8.5% in data set [25]; 0.8% in data set [26]; 3.9% in [27]; 8.6% in [28]; 89.2% in data set [29]; -10% in [30]. For the same molecule, the inhibition in data set [31] is 13.1%; in data set [32], 54%; in data set [33], 67.7%; in data set [34] it was 59.3%; in [35] it was -7.1%; in data set [36], -3.5%. The inhibition in [37] was 7.4%; in data set [38], 0.8%; in [39], 5.8%; in data set [40] it was 8.9%; in data set [41], 1.1%.
Turning to `CC1(C)OCc2c(Nc3n[nH]c4c(Cl)cccc34)nc(-c3cn[nH]c3)nc21`, the inhibition in data set [42] turned out to be 6.4%. In addition, the Drug metabolism entry in data set [43] is “metabolite_detected”.
